Read-outs that look alike come from different tables or passages of the source. Marks after values point to notes of the source that are not given here.
Columns and labels:
[1] = test system: rat aortic ring microvessel outgrowth; experiment: rat aortic ring microvessel assay; assay type: cell-based; conditions: for activity at 50 µM: Rattus norvegicus, 96 h, read-out: Average of Growth [%]
Experimental: The anti-angiogenic activity of the compounds was tested following the procedure described in Lepper, E. R., Ng, S. S., Gutschow, M., Weiss, M., Hauschildt, S., Hecker, T. K., Luzzio, F. A., Eger, K., Figg, W. D., J. Med. Chem. 2004, Comparative molecular field analysis and comparative molecular similarity indices analysis of thalidomide analogues as angiogenesis inhibitors; 47(9):2219-27. Twelve-well tissue culture-grade plates were covered with 250 μL Matrigel and allowed to gel for 30 to 45 minutes at 37° C., 5% CO2. Thoracic aortas were excised from 6- to 8-week-old male Sprague-Dawley rats, and the fibroadipose tissue was removed. The aortas were cut into 1 mm-long cross-sections and placed on the Matrigel coated wells. They were then covered with an additional 250 μL Matrigel and allowed to gel for 30 to 45 minutes at 37° C., 5% CO2. The rings were cultured for 24 hours in 1 mL EBM-2. After 24 hours, the medium was removed and replaced with 1 mL EBM-2 (Clonetics Corp.), supplemented with fetal bovine serum (2%), ascorbic acid, hydrocortisone, heparin, and amphotericin. Each selected compound was dissolved in DMSO and added to the EBM-2, before it was added to the well. Each selected compound was administered daily for four days at a daily dosage of 50 μM. Photos were taken on Day 5. DMSO alone was used as a control baseline. Carboxyamidotriazole (“CAI” from NCI, Bethesda, Md.) was used as a positive control. The vascular outgrowth was quantified using Adobe Photoshop (Adobe Systems, Inc., San Jose, Calif.) and the results are provided below in Tables 1 and 2.

[2] = test system: Human prostate cancer cell lines (PC3s); experiment: PC3 Proliferation Assay (hemocytometer count, trypan blue); assay type: cell-based; conditions: 24 hours, cell count normalized to DMSO control, concentration not given
Experimental: (§1) Human umbilical vein endothelial cells (HUVECs (Clonetics)) were maintained in EGM-II, supplemented with a Bullet-Kit (Clonetics). Human prostate cancer cell lines (PC3s (ATCC)) were maintained in RPMI-1640, supplemented with 10% fetal bovine serum. Both cell lines were incubated at 37° C., in a 5% CO2 atmosphere. Cells were seeded onto 12-well plates at a density of 30,000 cells/well and allowed to attach overnight at 37° C. and 5% CO2. The culture medium was then aspirated, and fresh culture medium containing either the vehicle (0.5% DMSO) or drug solution in 0.5% DMSO was added. After 24 hours, media was removed, then cells were trypsinized and counted with a hemocytometer, using trypan blue to exclude non-viable cells. Each compound was tested in triplicate and the cell count was normalized to the controls, to give the % growth. The results are shown below in Tables 3 and 4, and in FIGS. 5 and 6.

HUVEC = HUVEC Proliferation Assay, CCK-8 counting; assay type: cell-based, human; conditions: 24 h incubation
Experimental: as §1
(§2) The experiments for the data in Table 5 was performed as described above, except that the Table 5 experiments were performed in […] (at two concentrations), and the CCK-8 Cell Counting Kit (Dajindo Technologies) was utilized after treating for 24 hours.

PC3 = PC3 Proliferation Assay, CCK-8 counting; assay type: cell-based, human; conditions: 24 h incubation
Experimental: as §1, §2

[3] = test system: Human umbilical vein endothelial cells (HUVECs); experiment: HUVEC Proliferation Assay (hemocytometer count, trypan blue); assay type: cell-based; conditions: 24 hours, cell count normalized to DMSO control, concentration not given
Experimental: as §1

[4] = test system: rat aortic ring microvessel outgrowth; conditions: 50 μM; data reported in Lepper et al., J. Med. Chem. 2004; cited from earlier work

SMILES: CN1C(=O)NC(=O)C(C)(N2C(=O)c3c(F)c(F)c(F)c(F)c3C2=O)C1=O (racemic) [Compound 19a, 1,5-Dimethyl-5-(4,5,6,7-tetrafluoro-1,3-dihydro-1,3-dioxo-2H-isoindol-2-yl)-2,4,6-(1H,3H,5H)-pyrimidinetrione]
- activity at 50 µM [1]: 0.12%

SMILES: CCCN1C(=O)NC(=O)C(C)(N2C(=O)c3c(F)c(F)c(F)c(F)c3C2=O)C1=O (racemic) [Compound 19b, 5-Methyl-1-propyl-5-(4,5,6,7-tetrafluoro-1,3-dihydro-1,3-dioxo-2H-isoindol-2-yl)-2,4,6(1H,3H,5H)-pyrimidinetrione]
- activity at 50 µM [1]: 0.13%
- Average of Growth [%] [2]: 1.50%

SMILES: CC(C)N1C(=O)NC(=O)C(C)(N2C(=O)c3c(F)c(F)c(F)c(F)c3C2=O)C1=O (racemic) [Compound 19c, 1-Isopropyl-5-methyl-5-(4,5,6,7-tetrafluoro-1,3-dihydro-1,3-dioxo-2H-isoindol-2-yl)-2,4,6(1H,3H,5H)-pyrimidinetrione]
- activity at 50 µM [1]: 0.14%
- Average of Growth [%] [2]: 3.75%

SMILES: CCN1C(=O)NC(=O)C(CC)(N2C(=O)c3c(F)c(F)c(F)c(F)c3C2=O)C1=O (racemic) [Compound 19d, 1,5-Diethyl-5-(4,5,6,7-tetrafluoro-1,3-dihydro-1,3-dioxo-2H-isoindol-2-yl)-2,4,6-(1H,3H,5H)-pyrimidinetrione]
- activity at 50 µM [1]: 0.13%

SMILES: CCCN1C(=O)NC(=O)C(CC)(N2C(=O)c3c(F)c(F)c(F)c(F)c3C2=O)C1=O (racemic) [Compound 19e, 5-Ethyl-1-propyl-5-(4,5,6,7-tetrafluoro-1,3-dihydro-1,3-dioxo-2H-isoindol-2-yl)-2,4,6(1H,3H,5H)-pyrimidinetrione]
- activity at 50 µM [1]: 0.12%
- HUVEC Growth (5 uM) (Control = 100%) Mean (HUVEC): 1.68%
- HUVEC Growth (10 uM) (Control = 100%) Mean (HUVEC): 2.14%
- PC3 Growth (5 uM) (Control = 100%) Mean (PC3): 31.02%
- PC3 Growth (10 uM) (Control = 100%) Mean (PC3): 9.67%

SMILES: CCN1C(=O)NC(=O)C(C)(N2C(=O)c3c(F)c(F)c(F)c(F)c3C2=O)C1=O (racemic) [Compound 19f, 1-Ethyl-5-methyl-5-(4,5,6,7-tetrafluoro-1,3-dihydro-1,3-dioxo-2H-isoindol-2-yl)-2,4,6(1H,3H,5H)-pyrimidinetrione]
- activity at 50 µM [1]: 23.8%
- HUVEC Growth (5 uM) (Control = 100%) Mean (HUVEC): 27.17%
- HUVEC Growth (10 uM) (Control = 100%) Mean (HUVEC): 9.00%
- PC3 Growth (5 uM) (Control = 100%) Mean (PC3): 25.95%
- PC3 Growth (10 uM) (Control = 100%) Mean (PC3): 10.94%

SMILES: CCC1(N2C(=O)c3c(F)c(F)c(F)c(F)c3C2=O)C(=O)NC(=O)N(C(C)C)C1=O (racemic) [Compound 19g, 5-Ethyl-1-isopropyl-5-(4,5,6,7-tetrafluoro-1,3-dihydro-1,3-dioxo-2H-isoindol-2-yl)-2,4,6(1H,3H,5H)-pyrimidinetrione]
- activity at 50 µM [1]: 0.13%
- Average of Growth [%] [2]: 1.50%

SMILES: CC1(N2C(=O)c3c(F)c(F)c(F)c(F)c3C2=O)C(=O)NC(=O)N(C2CCCCC2)C1=O (racemic) [Compound 19h, 1-Cyclohexyl-5-methyl-5-(4,5,6,7-tetrafluoro-1,3-dihydro-1,3-dioxo-2H-isoindol-2-yl)-2,4,6(1H,3H,5H)-pyrimidinetrione]
- activity at 50 µM [1]: 11.8%

SMILES: CCC1(N2C(=O)c3c(F)c(F)c(F)c(F)c3C2=O)C(=O)NC(=O)N(C2CCCCC2)C1=O (racemic) [Compound 19i, 1-Cyclohexyl-5-ethyl-5-(4,5,6,7-tetrafluoro-1,3-dihydro-1,3-dioxo-2H-isoindol-2-yl)-2,4,6(1H,3H,5H)-pyrimidinetrione]
- activity at 50 µM [1]: 11.2%

SMILES: CN1C(=O)NC(=O)C(C)(NC(=O)c2cc(F)c(F)c(F)c2F)C1=O (racemic) [Compound 20a, N-(Hexahydro-1,5-dimethyl-2,4,6-trioxo-5-pyrimidinyl)-2,3,4,5-tetrafluorobenzamide]
- activity at 50 µM [1]: 58.3%

SMILES: CCCN1C(=O)NC(=O)C(C)(NC(=O)c2cc(F)c(F)c(F)c2F)C1=O (racemic) [Compound 20b, N-(Hexahydro-5-methyl-2,4,6-trioxo-1-propyl-5-pyrimidinyl)-2,3,4,5-tetrafluorobenzamide]
- activity at 50 µM [1]: 23.1%

SMILES: CC(C)N1C(=O)NC(=O)C(C)(NC(=O)c2cc(F)c(F)c(F)c2F)C1=O (racemic) [Compound 20c, N-(Hexahydro-1-isopropyl-5-methyl-2,4,6-trioxo-5-pyrimidinyl)-2,3,4,5-tetrafluorobenzamide]
- activity at 50 µM [1]: 5.63%

SMILES: CCN1C(=O)NC(=O)C(CC)(NC(=O)c2cc(F)c(F)c(F)c2F)C1=O (racemic) [Compound 20d, N-(1,5-Diethyl-hexahydro-2,4,6-trioxo-5-pyrimidinyl)-2,3,4,5-tetrafluorobenzamide]
- activity at 50 µM [1]: 31.1%
- HUVEC Growth (5 uM) (Control = 100%) Mean (HUVEC): 11.46%
- HUVEC Growth (10 uM) (Control = 100%) Mean (HUVEC): 14.53%
- PC3 Growth (10 uM) (Control = 100%) Mean (PC3): 87.73%

SMILES: CCCN1C(=O)NC(=O)C(CC)(NC(=O)c2cc(F)c(F)c(F)c2F)C1=O (racemic) [Compound 20e, N-(5-Ethyl-hexahydro-2,4,6-trioxo-1-propyl-5-pyrimidinyl)-2,3,4,5-tetrafluorobenzamide]
- activity at 50 µM [1]: 0.19%
- Average of Growth [%] [3]: 24.05%
- Average of Growth [%] [2]: 26.27%

SMILES: CCN1C(=O)NC(=O)C(C)(NC(=O)c2cc(F)c(F)c(F)c2F)C1=O (racemic) [Compound 20f, N-(1-Ethyl-hexahydro-5-methyl-2,4,6-trioxo-5-pyrimidinyl)-2,3,4,5-tetrafluorobenzamide]
- activity at 50 µM [1]: 16.8%

SMILES: CCC1(NC(=O)c2cc(F)c(F)c(F)c2F)C(=O)NC(=O)N(C(C)C)C1=O (racemic) [Compound 20g, N-(5-Ethyl-hexahydro-1-isopropyl-2,4,6-trioxo-5-pyrimidinyl)-2,3,4,5-tetrafluorobenzamide]
- activity at 50 µM [1]: 0.1%
- Average of Growth [%] [3]: 62.03%
- Average of Growth [%] [2]: 38.46%

SMILES: CC1(NC(=O)c2cc(F)c(F)c(F)c2F)C(=O)NC(=O)N(C2CCCCC2)C1=O (racemic) [Compound 20h, N-(1-Cyclohexyl-hexahydro-5-methyl-2,4,6-trioxo-5-pyrimidinyl)-2,3,4,5-tetrafluorobenzamide]
- activity at 50 µM [1]: 16.5%
- Average of Growth [%] [3]: 91.14%
- Average of Growth [%] [2]: 34.52%

SMILES: CCC1(NC(=O)c2cc(F)c(F)c(F)c2F)C(=O)NC(=O)N(C2CCCCC2)C1=O (racemic) [Compound 20i, N-(1-Cyclohexyl-5-ethyl-hexahydro-2,4,6-trioxo-5-pyrimidinyl)-2,3,4,5-tetrafluorobenzamide]
- activity at 50 µM [1]: 9.73%

SMILES: CCC1(NC(=O)c2cc(F)c(F)c(F)c2F)C(=O)NC(=O)N(c2ccccc2)C1=O (racemic) [Compound 20k, N-(5-Ethyl-hexahydro-2,4,6-trioxo-1-phenyl-5-pyrimidinyl)-2,3,4,5-tetrafluorobenzamide]
- activity at 50 µM [1]: 18.1%

SMILES: NC(=O)c1nnn(Cc2cc(Cl)c(C(=O)c3ccc(Cl)cc3)c(Cl)c2)c1N [CAI, Carboxyamidotriazole, reference compound]
- activity at 50 µM ([1]; phthalimides 19, 50 μM daily for four days, DMSO control = 100): 4.03%
- Average of Growth [%] ([1]; tetrafluorobenzamides 20, 50 μM daily for four days, DMSO control = 100): 4.03%

SMILES: CCC1(N2C(=O)c3c(F)c(F)c(F)c(F)c3C2=O)C(=O)NC(=O)N(c2ccccc2)C1=O (stereo not drawn) [Compound 19k]
- Average of Growth [%] [4]: 24.25^[a] %

From US8143252B2, “Tetrahalogenated compounds useful as inhibitors of angiogenesis” (The United States of America as represented by the …, priority 2006, dated 2012)
